# Source: article PMC9811682 (Frontiers in Chemistry, 2022)
# Where two headings read alike, the source gives them in different places.
# What was measured:
# [1] = target: T1, AChE (EC 3.1.1.7, from electric eel) (Electrophorus electricus, UniProt O42275); assay: In vitro AChE inhibitory activity assay (modified Ellman's method); format: biochemical; settings: tested at 100 μM, triplicate
# T1 construct: purchased Aladdin (Shanghai, China)
# Experimental: (§1) The inhibitory activities against AChE (EC 3.1.1.7) and BChE (EC 3.1.1.8) of the fungal samples and test compounds were analyzed following Ellman’s method ([Ellman et al., 1961]) with modifications. AChE (EC 3.1.1.7, from electric eel), BChE (EC 3.1.1.8, from equine serum), acetylthiocholine iodide (ATCI), butyrylthiocholine iodide (BTCI), and 5,5′-dithiobis (2-nitrobenzoic acid) (DTNB) were purchased from Aladdin (Shanghai, China). AChE and BChE solutions were prepared with water (0.2 units/ml). ATCI and BTCI solutions (10 mM) were prepared with deionized water before using. A DTNB solution (10 mM) was prepared in a 0.1 M, pH 8.0 solution of potassium dihydrogen phosphate (1.36 g, 10 mmol) in 100 ml of water (PBS). The fungal samples for screening were diluted to 1.0 mg/ml with methanol. The test compounds were dissolved in methanol (10 mM) as stock solutions. Subsequently, at least five different concentrations of each compound (double ratio dilution with methanol) were used to determine the half maximal inhibitory concentration (IC50). The tests were performed using 96-well plates. First, 160 μl of PBS, 2 μl of the test sample solution, 20 μl of AChE or BChE, and 10 μl of DTNB were added and mixed in each well, and then preincubated at 37°C for 10 min. After the addition of 10 μl of ATCI or BTCI, the reaction was initiated and incubated at 37°C for another 10 min. Then, the absorbance was measured at 412 nm. The wells with 2 μl of methanol replacing the test sample solution was used to determine 100% of the enzyme activity, and 20 μl of water replacing the enzyme solution was used to determine the blank value. All of the tests for each sample were performed in triplicate. The inhibition curve was fitted by plotting the inhibition rate vs. the logarithm of the test compound concentration. The IC50 values were calculated using Microsoft Excel software, and the data were expressed as the mean ± SD. The inhibition rate was calculated using the formula: IR% = [(Ac-As)]/[(Ac-Ab)] × 100%, where Ab denotes the absorbance of the blank control without the enzyme solution, Ac represents the absorbance of the control without the sample solution, and As denotes the absorbance of the sample.
# [2] = target: T2, BChE (EC 3.1.1.8, from equine serum) (Equus caballus, UniProt P81908); assay: biochemical; format: biochemical; settings: for BChE IR, %: tested at 100 μM, triplicate
# T2 construct: BChE (EC 3.1.1.8, from equine serum); purchased Aladdin (Shanghai, China); host or cells: equine serum
# T2 sequence (P81908 whole entry): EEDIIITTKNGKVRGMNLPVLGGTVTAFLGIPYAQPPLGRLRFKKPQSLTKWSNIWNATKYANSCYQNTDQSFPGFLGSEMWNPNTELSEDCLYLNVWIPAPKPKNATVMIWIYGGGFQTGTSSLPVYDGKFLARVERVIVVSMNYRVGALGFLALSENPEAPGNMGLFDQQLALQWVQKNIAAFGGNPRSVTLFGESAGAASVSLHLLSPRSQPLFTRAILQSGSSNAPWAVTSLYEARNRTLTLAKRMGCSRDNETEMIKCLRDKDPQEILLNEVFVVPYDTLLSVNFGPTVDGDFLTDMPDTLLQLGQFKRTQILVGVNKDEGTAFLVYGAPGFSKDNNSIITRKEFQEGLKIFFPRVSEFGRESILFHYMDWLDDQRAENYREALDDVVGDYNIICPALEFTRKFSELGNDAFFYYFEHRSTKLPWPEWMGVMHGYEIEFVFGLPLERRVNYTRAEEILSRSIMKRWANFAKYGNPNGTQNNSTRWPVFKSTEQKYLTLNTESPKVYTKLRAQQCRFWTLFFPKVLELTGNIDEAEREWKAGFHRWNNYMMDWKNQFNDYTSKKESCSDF
# Experimental: The fresh spore suspensions of SGP-1 and the seven other strains were inoculated into an Erlenmeyer flask (250 ml) containing 100 ml of liquid medium (glucose 2%, maltose 1%, mannitol 2%, glutamic acid 1%, peptone 0.5%, and yeast extract 0.3% in distilled water) and fermented at 28°C for 12 days on a rotary shaker at 200 rpm. To each fermentation broth was added 200 ml of ethyl acetate (EtOAc), and extraction was performed with the assistance of ultrasonication (40 kHz) for 30 min. The EtOAc solutions were removed in vacuo at 37°C to produce the EtOAc extracts. Each fungal EtOAc extract was dissolved in methanol at a concentration of 100.0 mg/ml, and was further diluted to a […] solution used for an in vitro BChE inhibitory activity assay. A sample of strain SGP-1 was analyzed using an HPLC-photo-diode array detector (PDAD)-UV with an analytical Kromasil C18 column (5 μm, 100 Å, 4.6 mm × 250 mm; Akzo Nobel) on an Agilent 1100 HPLC system equipped with a PDAD (G1316A). The extraction solution in methanol (100.0 mg/ml) was filtered with a 0.45-μm membrane, and then injected (20 μl) into the column, followed by elution with an MeOH-H2O linear gradient (20%→100% MeOH in 20 min followed by 5 min with isocratic 100% MeOH) mobile phase (flow rate 1 ml/min). During the separation procedure, the constituents of the emerging chromatographic peaks were collected in Eppendorf tubes with 2 s of delay. Each eluate was fixed to a volume of 200 μl, which was then used for the BChE inhibitory activity assay. The acquired PDAD data, including the UV spectra of peaks, were processed using Agilent OpenLAB software.
# as §1
# [3] = target: T2, BChE (EC 3.1.1.8, from equine serum); assay: Kinetic study of BChE inhibition (Lineweaver-Burk and secondary plots); format: biochemical
# Experimental: Kinetic studies were performed using the same protocol as the BChE inhibitory activity assay, and the substrate BTCI was used in a series of concentrations, 0.2, 0.4, 0.5, 0.6, and 0.7 mM. The test compound concentrations were set according to the inhibition IC50 of each compound. The enzymatic reaction was extended to 15 min before the detection of the absorbance. Lineweaver–Burk plots were generated to obtain the kinetic parameters, Michaelis constant (Km) and maximum velocity (Vmax), according to which inhibition modes were determined.
# α-glucosidase = settings: earlier study quoted in discussion; no reference given; cited from earlier work
# [4] = sample concentration that led to 50% enzyme activity loss, mean ± SD, read-out: BChE IC50
# [5] = BChE, competitive inhibition, secondary plot of K vs [I], read-out: Ki (inhibition constant)
# T1 sequence (O42275 24-633): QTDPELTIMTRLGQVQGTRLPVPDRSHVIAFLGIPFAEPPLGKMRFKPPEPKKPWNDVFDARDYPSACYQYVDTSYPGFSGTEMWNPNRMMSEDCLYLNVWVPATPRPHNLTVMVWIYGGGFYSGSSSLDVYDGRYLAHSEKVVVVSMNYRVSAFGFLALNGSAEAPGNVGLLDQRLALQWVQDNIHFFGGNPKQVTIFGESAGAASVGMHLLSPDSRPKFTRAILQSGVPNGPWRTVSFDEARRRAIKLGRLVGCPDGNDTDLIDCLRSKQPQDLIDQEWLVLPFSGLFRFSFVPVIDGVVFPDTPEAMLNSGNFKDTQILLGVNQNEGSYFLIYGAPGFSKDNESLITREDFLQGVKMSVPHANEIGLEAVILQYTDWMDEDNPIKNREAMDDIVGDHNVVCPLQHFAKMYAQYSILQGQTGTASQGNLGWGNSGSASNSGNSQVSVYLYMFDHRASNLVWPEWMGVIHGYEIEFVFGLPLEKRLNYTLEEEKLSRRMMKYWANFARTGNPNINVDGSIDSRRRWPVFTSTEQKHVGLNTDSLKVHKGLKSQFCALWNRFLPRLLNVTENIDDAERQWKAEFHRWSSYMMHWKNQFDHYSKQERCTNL
smiles,measurement,setting,value
"CC1(C)CCc2cc(CC3OC(=O)C(O)=C3c3ccc(O)cc3)ccc2O1 (centres unmarked) [Compound 10, 5-[(3,4-dihydro-2,2-dimethyl-2H-1-benzopyran-6-yl)methyl]-3-hydroxy-4-(4-hydroxyphenyl)-2(5H)-furanone]","AChE IR, %",[1],23.2 ± 1.1%
same,IC50,[2]; [4],> 100 µM
same,"BChE IR, %",[2],33.3 ± 7.5%
"COC(=O)[C@@]1(O)OC(=O)C(Cc2ccc3c(c2)CCC(C)(C)O3)=C1c1ccc(O)cc1 [Compound 3, flavipesolide B]","AChE IR, %",[1],19.6 ± 4.2%
same,IC50,[2]; [4],> 100 µM
same,"BChE IR, %",[2],22.5 ± 3.1%
"COC(=O)C1(O)OC(=O)C(Cc2ccc(O)c(CCC(C)(C)O)c2)=C1c1ccc(O)cc1 (centres unmarked) [Compound 2, methyl-2-hydroxy-4-(4-hydroxy-3-(3-hydroxy-3-methylbutyl)benzyl)-3-(4-hydroxyphenyl)-5-oxo-2,5-dihydrofuran-2-carboxylate]","AChE IR, %",[1],7.7 ± 1.0%
same,IC50,[2]; [4],> 100 µM
same,"BChE IR, %",[2],3.2 ± 3.6%
"COC(=O)C1(Cc2ccc(O)c(CCC(C)(C)OC)c2)OC(=O)C(O)=C1c1ccc(O)cc1 (centres unmarked) [Compound 13, aspernolide C]","AChE IR, %",[1],3.9 ± 0.9%
same,IC50,[2]; [4],> 100 µM
same,"BChE IR, %",[2],22.6 ± 5.3%
"COC(=O)C1(Cc2ccc3c(c2)CC(C(C)(C)O)O3)OC(=O)C(O)=C1c1ccc(O)cc1 (centres unmarked) [Compound 15, butytolactone IV]","AChE IR, %",[1],13.3 ± 5.5%
same,IC50,[2]; [4],> 100 µM
same,"BChE IR, %",[2],33.5 ± 2.3%
"CCOC(=O)C1(Cc2ccc(O)c(CC=C(C)C)c2)OC(=O)C(O)=C1c1ccc(O)cc1 (centres unmarked) [Compound 7, butyrolactone VII]","AChE IR, %",[1],11.7 ± 1.4%
same,IC50,[2]; [4],18.4 ± 2.5 µM
same,"BChE IR, %",[2],76.0 ± 3.5%
same,Ki,[3]; [5],12.3 µM
"COC(=O)C1(Cc2ccc(O)c(CC3OC3(C)C)c2)OC(=O)C(O)=C1c1ccc(O)cc1 (centres unmarked) [Compound 14, butyrolactone III]","AChE IR, %",[1],−4.2 ± 0.3%
same,IC50,[2],> 100 µM
same,"BChE IR, %",[2],-12.3 ± 4.6%
"CC(C)=CCc1cc(/C=C2\OC(=O)C(c3ccc(O)c(CC=C(C)C)c3)=C2O)ccc1O [Aspulvinone H, aspulvinone H, reference compound]","AChE IR, %",[1],9.6 ± 3.4%
same,IC50,[2]; [4],> 100 µM
same,"BChE IR, %",[2],6.5 ± 2.6%
"COC(=O)[C@@]1(Cc2ccc(O)c(CC=C(C)C)c2)OC(=O)C(O)=C1c1ccc(O)cc1 [Compound 6, butyrolactone I]","AChE IR, %",[1],−6.7 ± 3.6%
same,IC50,[2],35.5 ± 1.3 µM
same,"BChE IR, %",[2],68.0 ± 4.1%
same,Ki,[3],19.3 µM
same,IC50,α-glucosidase,1.52 µM
"COC(=O)C1(Cc2ccc(O)c(CCC(C)(C)O)c2)OC(=O)C(O)=C1c1ccc(O)cc1 (centres unmarked) [Compound 12, aspernolide B]","AChE IR, %",[1],2.2 ± 1.5%
same,IC50,[2]; [4],> 100 µM
same,"BChE IR, %",[2],13.4 ± 1.3%
"COC(=O)[C@@]1(O)OC(=O)C(Cc2ccc(O)c(CC=C(C)C)c2)=C1c1ccc(O)cc1 [Compound 4, butyrolactone VIII]","AChE IR, %",[1],11.9 ± 1.0%
same,IC50,[2]; [4],45.8 ± 6.9 µM
same,"BChE IR, %",[2],67.3 ± 2.8%
same,Ki,[3]; [5],23.6 µM
"COC(=O)C1(O)OC(=O)C(Cc2ccc(O)c(CCC(C)(C)OC)c2)=C1c1ccc(O)cc1 (centres unmarked) [Compound 1, methyl-2-hydroxy-4-(4-hydroxy-3-(3-methoxy-3-methylbutyl)benzyl)-3-(4-hydroxyphenyl)-5-oxo-2,5-dihydrofuran-2-carboxylate]","AChE IR, %",[1],11.2 ± 3.6%
same,IC50,[2]; [4],> 100 µM
same,"BChE IR, %",[2],15.6 ± 2.3%
"COC(=O)C1(Cc2ccc(O)c(CC=C(C)C)c2)OC(=O)C(O)=C1c1ccccc1 (centres unmarked) [Compound 5, versicolactone B]","AChE IR, %",[1],10.4 ± 1.9%
same,IC50,[2]; [4],44.3 ± 3.7 µM
same,"BChE IR, %",[2],64.4 ± 3.2%
same,Ki,[3]; [5],38.2 µM
"CC(C)=CCc1cc(CC2OC(=O)C(O)=C2c2ccc(O)cc2)ccc1O (centres unmarked) [Compound 8, 3-hydroxy-5-[[4-hydroxy-3-(3-methyl-2-buten-1-yl)phenyl]methyl]-4-(4-hydroxyphenyl)-2(5H)-furanone]","AChE IR, %",[1],14.2 ± 0.5%
same,IC50,[2]; [4],45.1 ± 7.2 µM
same,"BChE IR, %",[2],60.9 ± 0.6%
same,Ki,[3]; [5],35.7 µM
"COc1ccc2c3c1O[C@H]1C[C@@H](O)C=C[C@@]31CCN(C)C2 [Galantamine, reference compound]","BChE IR, %",[2],72.4 ± 1.2%
same,"BChE IR, %",[2]; listed as galantamine,72.4%
"COC(=O)C1(Cc2ccc3c(c2)CCC(C)(C)O3)OC(=O)C(O)=C1c1ccc(O)cc1 (centres unmarked) [Compound 11, aspernolide A]","AChE IR, %",[1],−0.1 ± 0.7%
same,IC50,[2]; [4],> 100 µM
same,"BChE IR, %",[2],25.4 ± 3.7%
"COC(=O)C1(Cc2ccc(O)cc2)OC(=O)C(O)=C1c1ccc(O)cc1 (centres unmarked) [Compound 9, butyrolactone II]","AChE IR, %",[1],9.6 ± 0.5%
same,IC50,[2]; [4],> 100 µM
same,"BChE IR, %",[2],19.9 ± 6.0%
